From patent US11058700B2, “Macrocyclic lactones and uses thereof as modulators of purinergic receptors” (City of Hope, priority 2015, dated 2021)

How the values were obtained:
[1] = biological target: T1, P2X4/P2X7/Pannexin-1 channels (Mus musculus, UniProt Q9JJX6); test: Membrane permeabilization to YOPRO-1; assay type: cell-based; settings: 4T1.2 cells, Ivermectin 0.5-32 μM, ATP 0.3-3 mM, 30 min
T1 construct: endogenous in cells; host or cells: 4T1.2 mouse breast cancer cells
T1 sequence (Q9JJX6 1-388): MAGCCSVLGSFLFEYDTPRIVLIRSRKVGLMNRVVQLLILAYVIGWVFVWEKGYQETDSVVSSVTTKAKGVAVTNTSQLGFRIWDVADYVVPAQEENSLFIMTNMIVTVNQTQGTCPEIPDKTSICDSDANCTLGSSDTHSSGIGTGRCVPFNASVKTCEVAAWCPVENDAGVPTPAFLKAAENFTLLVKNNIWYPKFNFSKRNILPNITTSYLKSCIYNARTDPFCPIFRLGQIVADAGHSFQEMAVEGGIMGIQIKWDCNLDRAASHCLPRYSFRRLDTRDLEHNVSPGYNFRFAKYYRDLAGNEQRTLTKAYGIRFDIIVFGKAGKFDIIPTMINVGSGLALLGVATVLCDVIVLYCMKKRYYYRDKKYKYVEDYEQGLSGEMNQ
Protocol: FIGS. 3A-3G. Dual roles of ATP and purinergic signaling in Ivermectin's killing. FIG. 3A: Depletion of extracellular ATP with Apyrase (2500 μunits/ml) exacerbates killing of 4T1.2 cell by Ivermectin. FIG. 3B: Extracellular Ca^2− and ATP contain Ivermectin-induced cell swelling. 4T1.2 cells were treated with 32 μM Ivermectin for 4 h in the presence of 1 mM EDTA or 2500 μunits/ml Apyrase. FIG. 3C: Ivermectin (0.5-32 μM) and high concentrations of extracellular ATP (0.3-3 mM) synergistically open pannexin-1 channels and permeabilize the membrane on live cells (7AAD-positive dead cells were gated out). 4T1.2 cells were treated for 30 min as indicated in the presence of 7 AAD and 5 μM YOPRO-1. FIG. 3D: Analysis of supernatants from Ivermectin-treated murine and human TNBC cells showing rapid release of ATP followed by its transient depletion. Depletion of extracellular ATP with Apyrase (2500 μunits/ml) was used as a positive control. FIG. 3E: Analysis of membrane-proximal ATP levels using cancer cells engineered to express a membrane-bound Luciferase. […] FIG. 3G: The P2X7-specific inhibitor KN-62 (1-10 μM) blocks Ivermectin cytotoxicity (IVM 8-32 μM, 4-48 h treatments). Asterisk (*) indicates p<0.05 relative to untreated or Ivermectin alone controls, respectively.
FIGS. 10A-10L. Extracellular Dual roles of ATP and purinergic signaling in Ivermectin's killing. 4T1.2 cells were treated with Ivermectin for 4 h in the presence of different inhibitors at μM concentrations as indicated. FIG. 10A: The non-specific P2 purinergic receptor inhibitor Suramin (4-400 μM) exacerbates Ivermectin-induced cell death. FIG. 10B: Inhibition of extracellular ATPases with PSB 069 protects against Ivermectin cytotoxicity. FIG. 10C: Blockade of pannexin-1 channels with Panx-1 mimetic blocking peptide (Anaspec) and Probenecid at μM concentrations as indicated exacerbates killing. […] FIG. 10E: ATP plays a transiently protective role only in the mouse but not human breast cancer cells. 4T1.2 and MDA-MB-231 cells were treated with 32 μM Ivermectin for 4 h in the presence of ATP at mM concentrations as indicated. FIG. 10F: qPCR showing up-regulation of P2X4 and P2X7 receptors on several murine cancer cell lines, including 4T1.2 and DD-Her2/neu (breast), and B16 (melanoma). […] Expression of P2X and P2Y purinergic receptors, NOX family members, GABA, and Glycine receptors was analyzed using publicly available breast cancer cell lines datasets. Statistically significant (p<0.05) up-regulation and down-regulation in breast cancer versus normal cells is shown in red and blue, respectively. FIG. 10H: Correlation between sensitivity to Ivermectin and ATP across various human cancer cell lines. Cancer cells were treated for 24 h with 3 mM ATP or Ivermectin at 16 and 32 μM doses as indicated. […]

TNBC cells = test: Extracellular ATP release; assay type: cell-based, mouse, human
Protocol: FIGS. 3A-3G. Dual roles of ATP and purinergic signaling in Ivermectin's killing. FIG. 3A: Depletion of extracellular ATP with Apyrase (2500 μunits/ml) exacerbates killing of 4T1.2 cell by Ivermectin. FIG. 3B: Extracellular Ca^2− and ATP contain Ivermectin-induced cell swelling. 4T1.2 cells were treated with 32 μM Ivermectin for 4 h in the presence of 1 mM EDTA or 2500 μunits/ml Apyrase. FIG. 3C: Ivermectin (0.5-32 μM) and high concentrations of extracellular ATP (0.3-3 mM) synergistically open pannexin-1 channels and permeabilize the membrane on live cells (7AAD-positive dead cells were gated out). 4T1.2 cells were treated for 30 min as indicated in the presence of 7 AAD and 5 μM YOPRO-1. FIG. 3D: Analysis of supernatants from Ivermectin-treated murine and human TNBC cells showing rapid release of ATP followed by its transient depletion. Depletion of extracellular ATP with Apyrase (2500 μunits/ml) was used as a positive control. […]
Extracellular ATP release. […] The cancer cells engineered to stably express the membrane-bound Luciferase were treated with Ivermectin for 30 min-4 h and luminescence was measured in the presence of 2 μM Luciferin. ATP concentration in Ivermectin treated supernatants was measured using ATP determination kit (Life Technologies, A22066) following manufacturers' instructions.

CC[C@H](C)[C@H]1O[C@]2(CC[C@@H]1C)C[C@@H]1C[C@@H](C/C=C(\C)[C@@H](O[C@H]3C[C@H](OC)[C@@H](O[C@H]4C[C@H](OC)[C@@H](O)[C@H](C)O4)[C@H](C)O3)[C@@H](C)/C=C/C=C3\CO[C@@H]4[C@H](O)C(C)=C[C@@H](C(=O)O1)[C@]34O)O2 [Ivermectin]
opening of channels / permeabilization to YOPRO-1 with ATP [1]: synergized with ATP in opening P2X4/P2X7/Pannexin-1 channels | extracellular ATP levels in supernatants (TNBC cells): immediate increase in extracellular ATP levels
